Data: the NIST ThermoML archive (doi:10.1021/acs.jced.7b00221)
± gives the expanded uncertainty stated by the source.

Details: 100 kPa, Liquid; for mass density: Vibrating tube method; for viscosity: Cone and plate viscometry

Row | SMILES | mass density (283.15 K) [kg/m3] | mass density (288.15 K) [kg/m3] | mass density (293.15 K) [kg/m3] | mass density (295.15 K) [kg/m3] | mass density (298.15 K) [kg/m3] | mass density (303.15 K) [kg/m3] | mass density (308.15 K) [kg/m3] | mass density (313.15 K) [kg/m3] | mass density (318.15 K) [kg/m3] | mass density (323.15 K) [kg/m3] | mass density (328.15 K) [kg/m3] | mass density (333.15 K) [kg/m3] | mass density (338.15 K) [kg/m3] | mass density (343.15 K) [kg/m3] | mass density (348.15 K) [kg/m3] | mass density (353.15 K) [kg/m3] | viscosity (278.15 K) [mPa·s] | viscosity (283.15 K) [mPa·s] | viscosity (288.15 K) [mPa·s] | viscosity (293.15 K) [mPa·s] | also measured
1 | CCCCCCCC[P+](CC)(CC)CC.O=[N+]([O-])c1cn[n-]c1 [triethyloctylphosphonium 4-nitropyrazolide] | 1040.7 ± 12 | 1037.7 ± 12 | 1034.6 ± 12 | 1033.4 ± 12 | 1031.5 ± 12 | 1028.5 ± 12 | 1025.5 ± 12 | 1022.6 ± 12 | 1019.6 ± 12 | 1016.7 ± 12 | 1013.8 ± 12 | 1010.8 ± 12 | 1007.9 ± 12 | 1005 ± 12 | 1002.1 ± 12 | 999.2 ± 12 |  |  |  |  | 
2 | CCCCCCn1cc[n+](C)c1C.O=S(=O)([N-]S(=O)(=O)C(F)(F)F)C(F)(F)F | 1373 ± 12 | 1368.4 ± 12 | 1363.9 ± 12 | 1362.1 ± 12 | 1359.5 ± 12 | 1355.1 ± 12 | 1350.8 ± 12 | 1346.4 ± 12 | 1342 ± 12 | 1337.6 ± 12 | 1333.2 ± 12 | 1328.9 ± 12 | 1324.5 ± 12 | 1320.2 ± 12 | 1315.8 ± 12 | 1311.5 ± 12 |  |  |  |  | 
3 | CCCC[n+]1ccn(C)c1.O=S(=O)([N-]S(=O)(=O)C(F)(F)F)C(F)(F)F | 1451.1 ± 4 | 1446.3 ± 4 | 1441.5 ± 4 | 1439.6 ± 4 | 1436.8 ± 4 | 1432 ± 4 | 1427.3 ± 4 | 1422.7 ± 4 | 1418 ± 4 | 1413.3 ± 4 | 1408.7 ± 4 | 1404.1 ± 4 | 1399.4 ± 4 | 1394.8 ± 4 | 1390.2 ± 4 | 1385.7 ± 4 | 138 ± 17 | 104 ± 13 | 80 ± 10 | 63 ± 8 | viscosity (298.15 K): 51 ± 6 mPa·s
4 | CCCCCCn1cc[n+](C)c1.N#Cc1ccc[n-]1 [1-hexyl-3-methylimidazolium 2-cyanopyrrolide] |  |  |  |  |  |  |  |  |  |  |  |  |  |  |  |  | 1540 ± 210 | 902 ± 120 | 553 ± 72 | 355 ± 45 | viscosity (298.15 K): 239 ± 30 mPa·s; viscosity (303.15 K): 167 ± 21 mPa·s; viscosity (308.15 K): 122 ± 15 mPa·s; viscosity (313.15 K): 91 ± 11 mPa·s; viscosity (318.15 K): 70 ± 9 mPa·s; viscosity (323.15 K): 55 ± 7 mPa·s
5 | CCCCCCCCCCCCCC[P+](CCCCCC)(CCCCCC)CCCCCC.N#Cc1ccc[n-]1 [trihexyl(tetradecyl)phosphonium 2-cyanopyrrolide] |  |  |  |  |  |  |  |  |  |  |  |  |  |  |  |  | 1764 ± 240 | 1179 ± 160 | 804 ± 110 | 563 ± 73 | viscosity (298.15 K): 404 ± 51 mPa·s; viscosity (303.15 K): 297 ± 37 mPa·s; viscosity (308.15 K): 223 ± 28 mPa·s; viscosity (313.15 K): 170 ± 21 mPa·s; viscosity (318.15 K): 133 ± 16 mPa·s; viscosity (323.15 K): 106 ± 13 mPa·s
6 | CCn1cc[n+](C)c1.O=S(=O)([N-]S(=O)(=O)C(F)(F)F)C(F)(F)F | 1534.1 ± 4.1 | 1529 ± 4.1 | 1523.9 ± 4.1 | 1521.9 ± 4.1 | 1518.9 ± 4 | 1513.9 ± 4 | 1508.9 ± 4 | 1503.9 ± 4 | 1499 ± 4 | 1494.1 ± 4 | 1489.1 ± 4 | 1484.2 ± 4 | 1479.3 ± 4 | 1474.4 ± 4 | 1469.6 ± 4 | 1464.7 ± 4 | 80 ± 10 | 63 ± 8 | 50 ± 6 |  | 
